In US6696468B2, “(S)-4-AMINO-5-CHLORO-2-METHOXY-N-[1-[1-(2-TETRAHYDROFURYL-CARBONYL)-4-[…]]-4-[…]]BENZAMIDE, PROCESS FOR THE PREPARATION THEREOF, PHARMACEUTICAL COMPOSITION CONTAINING THE SAME, AND INTERMEDIATE THEREFOR” (priority 2002, dated 2004):
Where a name gives a salt, the structure may show the parent alone.

How the values were obtained:
mice of Std-ddY strain = assay: Assay on defecation in mice; format: in vivo; design: key: −: Inactive; +: Moderately stimulated (P < 0.05); ++: Markedly stimulated (p < 0.01); conditions: fecal pellet weight vs control, Dunnett's test
Method: Male mice of Std-ddY strain weighing 25-30 g were used. Free access to food and water was allowed up to the beginning of the procedure. The mice (each group: five mice) were placed in a mesh bottom cage for fasting, and they were allowed for acclimation to the new environment for about one hour prior to the start of the experiment. A test compound, which was previously suspended in a 0.5% tragacanth solution, was administered orally to the mice. The fecal pellets were collected at 30, 60 and 120 minutes after the treatment of a test compound, and weighed. The statistical judgment of efficacy was carried out between the control group (treated with a 0.5% tragacanth solution) and the test compound-treated group, and determined by Dunnett's test.

[1] = test system: guinea pigs of Std-Hartley strain; assay: Effect on electrocardiogram in guinea pigs (QTc); format: in vivo, guinea pig; conditions: anesthetized guinea pigs, iv infusion for 15 minutes, maximum dose 30 mg/kg
Method: Male guinea pigs of Std-Hartley strain weighing 350-500 g were anesthetized with urethan (1.5 g/kg, ip). […] RR (second): time from the peak of R-wave to the peak of the next R-wave in electrocardiogram (usually, expressed by “second”). […] Consequently, as an index for evaluating the effects on the heart, a dose to be required to prolong the QTc intervals by 5% of the electrocardiogram (ED5%) in guinea pigs was measured, which has widely been used.

[2] = molecular target: T1, Serotonin 4 (5-HT4) receptor (Cavia porcellus, UniProt O70528); assay: Serotonin 4 (5-HT4) receptor binding assay ([3H]-GR113808); conditions: guinea pig striatum membrane fractions, 0.1 nM [3H]-GR113808
T1 construct: from tissue; host or cells: guinea pig (Std-Hartley) brain striatum membrane fraction
T1 sequence (O70528 whole entry): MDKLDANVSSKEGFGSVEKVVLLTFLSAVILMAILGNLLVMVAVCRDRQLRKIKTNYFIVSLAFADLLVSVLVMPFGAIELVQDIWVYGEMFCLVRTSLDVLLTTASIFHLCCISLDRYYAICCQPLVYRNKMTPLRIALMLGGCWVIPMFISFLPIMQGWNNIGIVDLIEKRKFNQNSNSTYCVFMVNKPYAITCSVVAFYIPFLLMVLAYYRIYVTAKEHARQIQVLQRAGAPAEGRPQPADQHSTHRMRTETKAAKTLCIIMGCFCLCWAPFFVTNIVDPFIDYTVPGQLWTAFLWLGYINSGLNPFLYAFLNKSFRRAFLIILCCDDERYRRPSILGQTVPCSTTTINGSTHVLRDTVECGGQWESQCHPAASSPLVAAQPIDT
From the text: Std-Hartley guinea pigs weighing 300-400 g were decapitated, and the brain thereof was immediately taken out, and the striatum was dissected.
Prior to the filtration, the filter to be used was presoaked in a 0.1% solution of polyethylenimine for one hour.

Dopamine D2 receptor = molecular target: T2, Dopamine D2 receptor (Rattus norvegicus, UniProt P61169); assay: Dopamine D2 receptor binding assay ([3H]spiperone); conditions: rat brain crude synaptosome membrane fractions
T2 construct: Crude synaptosome membrane fractions from rat brain was used as a receptor membrane fraction; from tissue; host or cells: rat brain crude synaptosome membrane fraction
T2 sequence (P61169 whole entry): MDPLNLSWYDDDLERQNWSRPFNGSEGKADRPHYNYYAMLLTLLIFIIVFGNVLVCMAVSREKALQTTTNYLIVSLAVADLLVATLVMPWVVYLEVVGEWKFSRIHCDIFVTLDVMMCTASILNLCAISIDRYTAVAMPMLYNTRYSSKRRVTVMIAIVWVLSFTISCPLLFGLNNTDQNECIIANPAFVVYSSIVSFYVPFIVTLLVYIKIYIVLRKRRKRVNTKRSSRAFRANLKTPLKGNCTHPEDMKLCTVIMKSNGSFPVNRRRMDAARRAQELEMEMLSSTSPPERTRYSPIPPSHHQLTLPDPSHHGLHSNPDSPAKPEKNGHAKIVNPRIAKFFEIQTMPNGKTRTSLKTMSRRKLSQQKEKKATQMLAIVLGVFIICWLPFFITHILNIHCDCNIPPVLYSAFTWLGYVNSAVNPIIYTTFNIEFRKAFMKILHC
Method: Dopamine D2 receptor binding assay and the preparation of receptor membrane fractions therefor were carried out according to a modified method of the method of Creese, I. et al., Eur. J. Pharmacol., 46, 337 (1977) and Peroutka, S. J. and Hamik, A., Eur. J. Pharmacol., 148, 297 (1988).
Crude synaptosome membrane fractions from rat brain was used as a receptor membrane fraction, and [^3H]spiperone (D2) was used as a labeled ligand. A buffer (final volume: 1 ml) containing a receptor membrane fraction and a labelled ligand therefor was incubated for a prescribed period in the presence of a test compound in various concentrations, and the radioactive ligand binding to the receptor was separated on the filter paper using a cell harvester (manufactured by Brandel). The radioactivity on the filter was determined by a liquid scintillation counter, and the total binding of the ligand to the receptor was determined. On the other hand, the non-specific binding was determined in the presence of an excess amount of non-labeled ligand (spiperone (D2)), and the specific binding was obtained by subtracting the non-specific binding from the total binding.

colon of Beagle dogs = assay: Gastrointestinal motility activity in conscious dog; format: in vivo; conditions: within 2 hours after administration
From the text: Beagle dogs of a male were anesthetized with pentobarbital, and the abdominal cavity was opened, and force transducers (F-121S; manufactured by Star Medical Inc.) were sutured onto the seromuscular layer of the colon to make it possible to measure circular muscle contractions. Three or four force transducer were sutured onto in the colon from the lower part to the upper part at regular intervals. The lead wires from the transducers were brought out outside the body through a skin incision made between the scapulae, and were protected in a package of a jacket protector. The gastrointestinal motility activity was measured 2 or 3 weeks after the operation. The lead wires from the force transducers were connected with a telemeter system (DAS-800T: manufactured by Star Medical Inc.), and the gastrointestinal motility activity was analyzed by a personal computer system being connected therewith and recorded. A test compound was suspended in a 0.5% tragacanth solution, and administered via a cannula to be placed in the stomach to the dogs, which were one hour or more after feeding. The measurement was continued for 2 hours after the administration of test compounds.
The number of dogs showing Giant Migrating Contraction (GMC) and defecation within 2 hours after the administration of a test compound is indicated in Table 4.

Acute toxicity = conditions: male, Std-ddY, mouse, in vivo; mice, intravenous, observed for 7 days
From the text: Male mice of Std-ddY strain weighing 25-30 g were used in a group of 5 or more animals. A test compound was suspended in physiological saline solution or a 1% lactose solution and administered intravenously to the mice.

Structure (SMILES)	Effect (defecation in mice) (mice of Std-ddY strain; 1.0 mg/kg oral)	Effect (defecation in mice) (mice of Std-ddY strain; 3.0 mg/kg oral)	ED5%, iv (dose required to prolong the QTc intervals by 5%) [1] [mg/kg]	also measured
COc1cc(N)c(Cl)cc1C(=O)NC1CCN(CC2CCN(C(=O)C3CCOC3)CC2)CC1.O=C(O)/C=C/C(=O)O (stereo not shown) [Compound C, 4-amino-5-chloro-2-methoxy-N-[1-[1-(3-tetrahydrofurylcarbonyl)-4-piperidinyl-methyl]-4-piperidinyl]benzamide.fumarate]	+	++	9.4	
COc1cc(N)c(Cl)cc1C(=O)NC1CCN(CC2CCN(C(=O)C3CCOCC3)CC2)CC1 (as salt: fumarate) (hydrate or solvate) [Compound A, 4-amino-5-chloro-2-methoxy-N-[1-[1-(4-tetrahydropyranylcarbonyl)-4-piperidinylmethyl]-4-piperidinyl]benzamide.fumarate.1/4 hydrate]				melting point: 235 to 237 °C
COc1cc(N)c(Cl)cc1C(=O)NC1CCN(CC2CCN(C(=O)C3CCOCC3)CC2)CC1 [Compound A, 4-amino-5-chloro-2-methoxy-N-[1-[1-(4-tetrahydropyranylcarbonyl)-4-piperidinylmethyl]-4-piperidinyl]benzamide.fumarate.1/4 hydrate]	−	−	16.9	Effect (defecation in mice) (mice of Std-ddY strain; 10 mg/kg oral): ++
COc1cc(N)c(Cl)cc1C(=O)NC1CCN(CC2CCN(C(=O)[C@@H]3CCCO3)CC2)CC1 [Compound 2, (S)-4-amino-5-chloro-2-methoxy-N-[1-[1-(2-tetrahydrofurylcarbonyl)-4-piperidinylmethyl]-4-piperidinyl]benzamide.fumarate]	++	++	24.9	IC50 [2]: 13.5 nM; IC50 (Dopamine D2 receptor): > 10000 nM; Number of dogs which showed defecation/total number of dogs to be tested (colon of Beagle dogs; 0.03 mg/kg intragastric): 1/4; Number to dogs which showed GMC/total number of dogs to be tested (colon of Beagle dogs; 0.03 mg/kg intragastric): 1/4; Number of dogs which showed defecation/total number of dogs to be tested (colon of Beagle dogs; 0.1 mg/kg intragastric): 2/5; Number to dogs which showed GMC/total number of dogs to be tested (colon of Beagle dogs; 0.1 mg/kg intragastric): 3/5; Number of dogs which showed defecation/total number of dogs to be tested (colon of Beagle dogs; 0.3 mg/kg intragastric): 3/5; Number to dogs which showed GMC/total number of dogs to be tested (colon of Beagle dogs; 0.3 mg/kg intragastric): 4/5; LD50 at 7 days (Acute toxicity): > 200 mg/kg
COc1cc(N)c(Cl)cc1C(=O)NC1CCN(CC2CCN(C(=O)[C@H]3CCCO3)CC2)CC1 [Compound R, (R)-4-amino-5-chloro-2-methoxy-N-[1-[1-(2-tetrahydrofurylcarbonyl)-4-piperidinyl-methyl]-4-piperidinyl]benzamide.fumarate]	++	++	17.4	IC50 (Dopamine D2 receptor): 948 nM
COc1cc(N)c(Cl)cc1C(=O)N[C@H]1CCN(CCCOc2ccc(F)cc2)C[C@H]1OC (relative stereo) [Cisapride, cis-4-amino-5-chloro-N-[1-[3-(4-fluorophenoxy)propyl]-3-methoxy-4-piperidinyl]-2-methoxybenzamide]		−	0.3	Effect (defecation in mice) (mice of Std-ddY strain; 30 mg/kg oral): −; Number of dogs which showed defecation/total number of dogs to be tested (colon of Beagle dogs; 10 mg/kg intragastric): 1/7; Number to dogs which showed GMC/total number of dogs to be tested (colon of Beagle dogs; 10 mg/kg intragastric): 1/7
COc1cc(N)c(Cl)cc1C(=O)NC1CCN(CC2CCN(C(=O)c3ccco3)CC2)CC1 (as salt: fumarate) (hydrate or solvate) [Compound B, 4-amino-5-chloro-N-[1-[1-(2-furoyl)-4-piperidinyl-methyl]-4-piperidinyl]-2-methoxybenzamide.fumarate.1/2 hydrate]				melting point: 179 to 181 °C
COc1cc(N)c(Cl)cc1C(=O)NC1CCN(CC2CCN(C(=O)c3ccco3)CC2)CC1 [Compound B, 4-amino-5-chloro-N-[1-[1-(2-furoyl)-4-piperidinyl-methyl]-4-piperidinyl]-2-methoxybenzamide.fumarate.1/2 hydrate]	+	+	3.2	Effect (defecation in mice) (mice of Std-ddY strain; 10 mg/kg oral): ++
